Measurements from patent US12465637B2, “Compositions and methods for modulation of antibody activity” (Institute for Cancer Research, priority 2019, dated 2025).

Assays:
CTLA-4 = CTLA-4 sandwich ELISA (BioLegend); type: binding; conditions: compared with ipilimumab
Protocol: Two anti-CTLA-4 scFv constructs (3GSWT with -GG(GGSGG)3GG- linker (SEQ ID NO: 6) and 5GSWT with -GG(GGSGG)5GG- linker (SEQ ID NO: 7)) were generated based on ipilimumab. The activity of each scFv antibody construct was compared via a sandwich ELISA assay (BioLegend; San Diego, CA), according to the manufacturer's instruction.
The triple mutation (VLF98G/VHV37A/VHW110G) was introduced into the 5GSWT scFv construct. The ability of JK43 to rescue the triple mutant was then tested. Briefly, the ability of the wild-type (5GSWT scFv construct) and triple mutant constructs to bind CTLA-4 was tested in the presence or absence of JK43 using the above sandwich ELISA assay, according to the manufacturer's instructions.

[1] = tested on: 4D5Flu triple mutant (VLF98G/VHV37A/VHW110G); assay: Fluorescein fluorescence quenching, effector (JK43/analog) rescue of triple mutant; type: biochemical; conditions: effector titration; 500 nM triple mutant, 10 nM fluorescein, 1% DMSO
Protocol: For the protein titration experiment, samples were prepared by titrating varying concentrations of protein (WT or triple mutant) into PBS containing a final concentration of 10 nM fluorescein and 1% DMSO, with or without 100 μM JK43. For the JK43 titration experiment, samples were prepared by titrating varying concentrations of JK43 into PBS with a final concentration of 10 nM fluorescein, 1% DMSO and 500 nM protein (WT or triple mutant). For the SAR experiment, samples were prepared by adding 10 μM of JK43 analogs into PBS with a final concentration of 10 nM fluorescein, 1% DMSO and 500 nM triple mutant.
Fluorescence quenching experiments were carried out in a SpectraMax® i3x Multi-Mode Microplate Reader (Molecular Devices), using a Costar 96-well black round bottom plates, 200 μL reaction volume, excitation wavelength of 475 nm and emission wavelength of 525 nm, at a temperature of 27° C. Blank measurements containing all sample components except fluorescein were subtracted to remove background. All samples were normalized to a control of fluorescein alone (0% quenching) and buffer alone (100% quenching).

Compound | Binding of CTLA-4 (FIG. 6B) (CTLA-4) | EC50 [1] [µM]
3GSWT: anti-CTLA-4 scFv based on ipilimumab with -GG(GGSGG)3GG- linker (SEQ ID NO: 22) | readily bind CTLA-4, albeit slightly less potently than ipilimumab | 
c1ccc(COc2ccc3cc[nH]c3c2)cc1 [JK25, 6-phenylmethoxy-1H-indole] |  | 25
c1ccc(COc2ccc3cn[nH]c3c2)cc1 [JK43, 6-phenylmethoxy-1H-indazole] |  | 16
